Laboratory results as given in ChEMBL document CHEMBL1649134, “Occurrence of efflux mechanism and cephalosporinase variant in a population of Enterobacter aerogenes and Klebsiella pneumoniae isolates producing extended-spectrum beta-lactamases” (2009).
Values after ≈ are worked out from the molar mass of the structure shown.

Tests used:
Assay type in all cases: functional
[1] = test system: Klebsiella aerogenes; test: Antimicrobial activity against multidrug resistant Enterobacter aerogenes ATCC 15038 by broth dilution method in presence of 26.3 mg/L efflux pump inhibitor phenylalanine-arginine-beta-naphthylamide
[2] = test system: Klebsiella pneumoniae; test: Antimicrobial activity against multidrug resistant Klebsiella pneumoniae isolate 7 by broth dilution method in presence of 26.3 mg/L efflux pump inhibitor phenylalanine-arginine-beta-naphthylamide
[3] = test system: Klebsiella pneumoniae; test: Antimicrobial activity against multidrug resistant Klebsiella pneumoniae isolate 12 by broth dilution method
[4] = test system: Klebsiella pneumoniae; test: Antimicrobial activity against multidrug resistant Klebsiella pneumoniae isolate 14 by broth dilution method
[5] = test system: Klebsiella aerogenes; test: Antimicrobial activity against multidrug resistant Enterobacter aerogenes isolate 13 by broth dilution method
[6] = test system: Klebsiella aerogenes; test: Antimicrobial activity against multidrug resistant Enterobacter aerogenes isolate 19 by broth dilution method in presence of 26.3 mg/L efflux pump inhibitor phenylalanine-arginine-beta-naphthylamide
[7] = test system: Klebsiella aerogenes; test: Antimicrobial activity against multidrug resistant Enterobacter aerogenes isolate 19 by broth dilution method
[8] = test system: Klebsiella aerogenes; test: Antimicrobial activity against multidrug resistant Enterobacter aerogenes isolate 22 by broth dilution method in presence of 26.3 mg/L efflux pump inhibitor phenylalanine-arginine-beta-naphthylamide
[9] = test system: Klebsiella aerogenes; test: Antimicrobial activity against multidrug resistant Enterobacter aerogenes isolate 12 by broth dilution method
[10] = test system: Klebsiella aerogenes; test: Antimicrobial activity against multidrug resistant Enterobacter aerogenes isolate 17 by broth dilution method in presence of 26.3 mg/L efflux pump inhibitor phenylalanine-arginine-beta-naphthylamide
[11] = test system: Klebsiella aerogenes; test: Antimicrobial activity against multidrug resistant Enterobacter aerogenes isolate 23 by broth dilution method in presence of 26.3 mg/L efflux pump inhibitor phenylalanine-arginine-beta-naphthylamide
[12] = test system: Klebsiella pneumoniae; test: Antimicrobial activity against multidrug resistant Klebsiella pneumoniae isolate 3 by broth dilution method
[13] = test system: Klebsiella aerogenes; test: Antimicrobial activity against multidrug resistant Enterobacter aerogenes isolate 3 by broth dilution method
[14] = test system: Klebsiella aerogenes; test: Antimicrobial activity against multidrug resistant Enterobacter aerogenes isolate 20 by broth dilution method
[15] = test system: Klebsiella aerogenes; test: Antimicrobial activity against multidrug resistant Enterobacter aerogenes isolate 8 by broth dilution method
[16] = test system: Klebsiella aerogenes; test: Antimicrobial activity against multidrug resistant Enterobacter aerogenes isolate 24 by broth dilution method
[17] = test system: Klebsiella aerogenes; test: Antimicrobial activity against multidrug resistant Enterobacter aerogenes isolate 15 by broth dilution method
[18] = test system: Klebsiella aerogenes; test: Antimicrobial activity against multidrug resistant Enterobacter aerogenes isolate 14 by broth dilution method in presence of 26.3 mg/L efflux pump inhibitor phenylalanine-arginine-beta-naphthylamide
[19] = test system: Klebsiella pneumoniae; test: Antimicrobial activity against multidrug resistant Klebsiella pneumoniae isolate 11 by broth dilution method in presence of 26.3 mg/L efflux pump inhibitor phenylalanine-arginine-beta-naphthylamide
[20] = test system: Klebsiella pneumoniae; test: Antimicrobial activity against multidrug resistant Klebsiella pneumoniae isolate 12 by broth dilution method in presence of 26.3 mg/L efflux pump inhibitor phenylalanine-arginine-beta-naphthylamide
[21] = test system: Klebsiella aerogenes; test: Antimicrobial activity against multidrug resistant Enterobacter aerogenes ATCC 15038 by broth dilution method
[22] = test system: Klebsiella aerogenes; test: Antimicrobial activity against multidrug resistant Enterobacter aerogenes isolate 27 by broth dilution method
[23] = test system: Klebsiella aerogenes; test: Antimicrobial activity against multidrug resistant Enterobacter aerogenes isolate 5 by broth dilution method
[24] = test system: Klebsiella aerogenes; test: Antimicrobial activity against multidrug resistant Enterobacter aerogenes isolate 12 by broth dilution method in presence of 26.3 mg/L efflux pump inhibitor phenylalanine-arginine-beta-naphthylamide
[25] = test system: Klebsiella pneumoniae; test: Antimicrobial activity against multidrug resistant Klebsiella pneumoniae isolate 8 by broth dilution method in presence of 26.3 mg/L efflux pump inhibitor phenylalanine-arginine-beta-naphthylamide
[26] = test system: Klebsiella pneumoniae; test: Antimicrobial activity against multidrug resistant Klebsiella pneumoniae isolate 14 by broth dilution method in presence of 26.3 mg/L efflux pump inhibitor phenylalanine-arginine-beta-naphthylamide
[27] = test system: Klebsiella aerogenes; test: Antimicrobial activity against multidrug resistant Enterobacter aerogenes isolate 6 by broth dilution method
[28] = test system: Klebsiella aerogenes; test: Antimicrobial activity against multidrug resistant Enterobacter aerogenes isolate 16 by broth dilution method in presence of 26.3 mg/L efflux pump inhibitor phenylalanine-arginine-beta-naphthylamide
[29] = test system: Klebsiella pneumoniae; test: Antimicrobial activity against multidrug resistant Klebsiella pneumoniae isolate 13 by broth dilution method
[30] = test system: Klebsiella aerogenes; test: Antimicrobial activity against multidrug resistant Enterobacter aerogenes isolate 8 by broth dilution method in presence of 26.3 mg/L efflux pump inhibitor phenylalanine-arginine-beta-naphthylamide
[31] = test system: Klebsiella pneumoniae; test: Antimicrobial activity against multidrug resistant Klebsiella pneumoniae isolate 2 by broth dilution method in presence of 26.3 mg/L efflux pump inhibitor phenylalanine-arginine-beta-naphthylamide
[32] = test system: Klebsiella aerogenes; test: Antimicrobial activity against multidrug resistant Enterobacter aerogenes isolate 14 by broth dilution method
[33] = test system: Klebsiella pneumoniae; test: Antimicrobial activity against multidrug resistant Klebsiella pneumoniae isolate 3 by broth dilution method in presence of 26.3 mg/L efflux pump inhibitor phenylalanine-arginine-beta-naphthylamide
[34] = test system: Klebsiella aerogenes; test: Antimicrobial activity against multidrug resistant Enterobacter aerogenes isolate 5 by broth dilution method in presence of 26.3 mg/L efflux pump inhibitor phenylalanine-arginine-beta-naphthylamide
[35] = test system: Klebsiella aerogenes; test: Antimicrobial activity against multidrug resistant Enterobacter aerogenes isolate 10 by broth dilution method in presence of 26.3 mg/L efflux pump inhibitor phenylalanine-arginine-beta-naphthylamide
[36] = test system: Klebsiella pneumoniae; test: Antimicrobial activity against multidrug resistant Klebsiella pneumoniae isolate 4 by broth dilution method
[37] = test system: Klebsiella pneumoniae; test: Antimicrobial activity against multidrug resistant Klebsiella pneumoniae isolate 2 by broth dilution method
[38] = test system: Klebsiella pneumoniae; test: Antimicrobial activity against multidrug resistant Klebsiella pneumoniae isolate 4 by broth dilution method in presence of 26.3 mg/L efflux pump inhibitor phenylalanine-arginine-beta-naphthylamide
[39] = test system: Klebsiella aerogenes; test: Antimicrobial activity against multidrug resistant Enterobacter aerogenes isolate 3 by broth dilution method in presence of 26.3 mg/L efflux pump inhibitor phenylalanine-arginine-beta-naphthylamide
[40] = test system: Klebsiella pneumoniae; test: Antimicrobial activity against multidrug resistant Klebsiella pneumoniae isolate 15 by broth dilution method

Compound	MIC [1] [µg/mL]	MIC [2] [µg/mL]	MIC [3] [µg/mL]	MIC [4] [µg/mL]	MIC [5] [µg/mL]	MIC [6] [µg/mL]	MIC [7] [µg/mL]	MIC [8] [µg/mL]	MIC [9] [µg/mL]	MIC [10] [µg/mL]	MIC [11] [µg/mL]	MIC [12] [µg/mL]	MIC [13] [µg/mL]	MIC [14] [µg/mL]	MIC [15] [µg/mL]	MIC [16] [µg/mL]	MIC [17] [µg/mL]	MIC [18] [µg/mL]	MIC [19] [µg/mL]	MIC [20] [µg/mL]	also measured
C[C@@H]1CN(c2c(F)c(N)c3c(=O)c(C(=O)O)cn(C4CC4)c3c2F)C[C@H](C)N1 [SPARFLOXACIN]	≤ 0.06	≤ 0.06	≤ 0.06	2 (≈ 5.1 µM)	256 (≈ 652 µM)	16	128 (≈ 326 µM)	8	128 (≈ 326 µM)	16	4	8 (≈ 20.4 µM)	128 (≈ 326 µM)	256 (≈ 652 µM)	64 (≈ 163 µM)	256 (≈ 652 µM)	128 (≈ 326 µM)	8	2	≤ 0.06	MIC [21]: ≤ 0.06 µg/mL; MIC [22]: 256 µg/mL (≈ 652 µM); MIC [23]: 512 µg/mL (≈ 1300 µM); MIC [24]: 8 µg/mL; MIC [25]: ≤ 0.06 µg/mL; MIC [26]: ≤ 0.06 µg/mL; MIC [27]: 0.125 µg/mL (≈ 0.319 µM); MIC [28]: 8 µg/mL; MIC [29]: 2.1 µg/mL (≈ 5.35 µM); MIC [30]: 4 µg/mL; MIC [31]: ≤ 0.06 µg/mL; MIC [32]: 128 µg/mL (≈ 326 µM); MIC [33]: 4 µg/mL; MIC [34]: 16 µg/mL; MIC [35]: 8 µg/mL; MIC [36]: 8 µg/mL (≈ 20.4 µM); MIC [37]: 2 µg/mL (≈ 5.1 µM); MIC [38]: 2 µg/mL; MIC [39]: 8 µg/mL; MIC [40]: 32 µg/mL (≈ 81.5 µM)
CCn1cc(C(=O)O)c(=O)c2cc(F)c(N3CCNCC3)cc21 [NORFLOXACIN]	0.125	0.25	8 (≈ 25.1 µM)	8 (≈ 25.1 µM)	512 (≈ 1600 µM)	128	128 (≈ 401 µM)	128	512 (≈ 1600 µM)	128	256	128 (≈ 401 µM)	256 (≈ 802 µM)	512 (≈ 1600 µM)	128 (≈ 401 µM)	512 (≈ 1600 µM)	512 (≈ 1600 µM)	512	64	0.25	MIC [21]: 0.125 µg/mL (≈ 0.391 µM); MIC [22]: 256 µg/mL (≈ 802 µM); MIC [23]: 512 µg/mL (≈ 1600 µM); MIC [24]: 512 µg/mL; MIC [25]: 0.25 µg/mL; MIC [26]: 0.25 µg/mL; MIC [27]: 64 µg/mL (≈ 200 µM); MIC [28]: 128 µg/mL; MIC [29]: > 256 µg/mL; MIC [30]: 128 µg/mL; MIC [31]: 2 µg/mL; MIC [32]: 512 µg/mL (≈ 1600 µM); MIC [33]: 128 µg/mL; MIC [34]: 512 µg/mL; MIC [35]: 256 µg/mL; MIC [36]: 128 µg/mL (≈ 401 µM); MIC [37]: 4 µg/mL (≈ 12.5 µM); MIC [38]: 128 µg/mL; MIC [39]: 256 µg/mL; MIC [40]: 256 µg/mL (≈ 802 µM)
